Among the data in patent US20240246942A1, “KINASE INHIBITORS FOR THE TREATMENT OF NEURODEGENERATIVE DISEASES” (priority 2020, published 2024) are remaining activity values, retold here.

Structures are written as SMILES.

What all share (experiment): biochemical
The target of experiment [1] is T1, panel of 374 wild-type kinases (Homo sapiens, UniProt Q86YV6).
T1 construct: purchased Reaction Biology Corporation
T1 sequence (Q86YV6 1-388): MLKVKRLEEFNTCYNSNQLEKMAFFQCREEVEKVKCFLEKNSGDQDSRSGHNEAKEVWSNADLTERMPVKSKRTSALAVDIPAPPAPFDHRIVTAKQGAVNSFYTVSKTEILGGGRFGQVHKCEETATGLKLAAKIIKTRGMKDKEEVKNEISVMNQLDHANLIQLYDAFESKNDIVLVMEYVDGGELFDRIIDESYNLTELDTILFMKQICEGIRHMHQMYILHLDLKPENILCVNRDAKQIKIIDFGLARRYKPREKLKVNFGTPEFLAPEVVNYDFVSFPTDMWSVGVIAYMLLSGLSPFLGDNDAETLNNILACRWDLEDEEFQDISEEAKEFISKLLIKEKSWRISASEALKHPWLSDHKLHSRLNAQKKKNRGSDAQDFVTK
The conditions noted are these: read-out: % Enzyme Activity (relative to DMSO controls), MYLK4.

For experiment [2], the target named is T2, panel of 374 wild-type kinases (Homo sapiens, UniProt Q14680).
T2 construct: purchased Reaction Biology Corporation
The settings on record: read-out: % Enzyme Activity (relative to DMSO controls), MELK.

Experiment [3] concerns the target T3, panel of 374 wild-type kinases (Homo sapiens, UniProt Q96SB4).
T3 construct: purchased Reaction Biology Corporation
The conditions noted are these: read-out: % Enzyme Activity (relative to DMSO controls), kinase SRPK1.

Experiment [4] deals with T4, panel of 374 wild-type kinases (Homo sapiens, UniProt O43353).
T4 construct: purchased Reaction Biology Corporation
The conditions noted are these: read-out: % Enzyme Activity (relative to DMSO controls), kinase RIPK2.

The target of experiment [5] is T5, panel of 374 wild-type kinases (Homo sapiens, UniProt O75676).
T5 construct: purchased Reaction Biology Corporation
The conditions noted are these: read-out: % Enzyme Activity (relative to DMSO controls), MSK2/RPS6KA4.

Experiment [6] has as its target T6, panel of 374 wild-type kinases (Homo sapiens, UniProt Q5TCY1).
T6 construct: purchased Reaction Biology Corporation
The settings on record: kinase TTBK1, read-out: % Enzyme Activity (relative to DMSO controls).

The target in experiment [7] is T7, panel of 374 wild-type kinases (Homo sapiens, UniProt Q8TD08).
T7 construct: purchased Reaction Biology Corporation
T7 sequence (Q8TD08 1-544): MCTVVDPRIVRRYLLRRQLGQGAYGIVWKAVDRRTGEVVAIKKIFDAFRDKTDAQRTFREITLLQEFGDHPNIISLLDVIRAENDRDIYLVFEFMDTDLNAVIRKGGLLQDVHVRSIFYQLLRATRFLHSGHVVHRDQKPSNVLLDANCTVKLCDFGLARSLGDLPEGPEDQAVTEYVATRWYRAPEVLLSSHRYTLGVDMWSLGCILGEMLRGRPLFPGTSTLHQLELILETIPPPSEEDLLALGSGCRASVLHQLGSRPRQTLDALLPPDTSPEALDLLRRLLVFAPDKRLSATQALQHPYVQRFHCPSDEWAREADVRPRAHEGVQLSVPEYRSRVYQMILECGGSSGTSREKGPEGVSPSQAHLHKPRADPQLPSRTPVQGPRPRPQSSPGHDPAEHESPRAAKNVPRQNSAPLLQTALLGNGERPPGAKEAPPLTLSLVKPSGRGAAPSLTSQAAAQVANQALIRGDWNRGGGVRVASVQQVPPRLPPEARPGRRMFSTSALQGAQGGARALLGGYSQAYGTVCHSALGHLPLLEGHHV
The conditions noted are these: read-out: % Enzyme Activity (relative to DMSO controls), ERK7/MAPK15.

Experiment [8] addresses T8, panel of 374 wild-type kinases (Homo sapiens, UniProt Q9NYY3).
T8 construct: purchased Reaction Biology Corporation
The settings on record: read-out: % Enzyme Activity (relative to DMSO controls), kinase PLK2.

The target in experiment [9] is T9, panel of 374 wild-type kinases (Homo sapiens, UniProt O15530).
T9 construct: purchased Reaction Biology Corporation
T9 sequence (O15530 1-556): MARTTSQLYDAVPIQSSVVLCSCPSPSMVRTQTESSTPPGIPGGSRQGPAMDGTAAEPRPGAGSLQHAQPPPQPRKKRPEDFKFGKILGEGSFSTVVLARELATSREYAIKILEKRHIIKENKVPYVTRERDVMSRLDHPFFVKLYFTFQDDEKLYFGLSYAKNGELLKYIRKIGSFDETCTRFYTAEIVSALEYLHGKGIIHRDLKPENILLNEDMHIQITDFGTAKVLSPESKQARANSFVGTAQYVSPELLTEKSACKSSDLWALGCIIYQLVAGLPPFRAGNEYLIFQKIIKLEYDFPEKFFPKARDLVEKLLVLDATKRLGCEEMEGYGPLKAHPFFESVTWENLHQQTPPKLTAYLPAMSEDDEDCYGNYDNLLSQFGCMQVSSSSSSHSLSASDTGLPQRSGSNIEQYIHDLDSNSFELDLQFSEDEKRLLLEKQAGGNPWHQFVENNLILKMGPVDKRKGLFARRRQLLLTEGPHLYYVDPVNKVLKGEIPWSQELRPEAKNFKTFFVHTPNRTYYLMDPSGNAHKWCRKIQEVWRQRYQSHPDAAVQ
The conditions noted are these: read-out: % Enzyme Activity (relative to DMSO controls), kinase PDK1/PDPK1.

Experiment [10] concerns the target T10, panel of 374 wild-type kinases (Homo sapiens, UniProt Q02750).
T10 construct: purchased Reaction Biology Corporation
The settings on record: read-out: % Enzyme Activity (relative to DMSO controls), MEK1.

Experiment [11] concerns the target T11, panel of 374 wild-type kinases (Homo sapiens, UniProt Q6P2M8).
T11 construct: purchased Reaction Biology Corporation
The conditions noted are these: read-out: % Enzyme Activity (relative to DMSO controls), CAMK1b.

Experiment [12] concerns the target T12, panel of 374 wild-type kinases (Homo sapiens, UniProt Q9Y2H1).
T12 construct: purchased Reaction Biology Corporation
The settings on record: read-out: % Enzyme Activity (relative to DMSO controls), kinase STK38L/NDR2.

Experiment [13] has as its target T13, panel of 374 wild-type kinases (Homo sapiens, UniProt Q9NYL2).
T13 construct: purchased Reaction Biology Corporation
The settings on record: read-out: % Enzyme Activity (relative to DMSO controls), kinase ZAK/MLTK.

For experiment [14], the target named is T14, panel of 374 wild-type kinases (Homo sapiens, UniProt Q13233).
T14 construct: purchased Reaction Biology Corporation
T14 sequence (Q13233 whole entry): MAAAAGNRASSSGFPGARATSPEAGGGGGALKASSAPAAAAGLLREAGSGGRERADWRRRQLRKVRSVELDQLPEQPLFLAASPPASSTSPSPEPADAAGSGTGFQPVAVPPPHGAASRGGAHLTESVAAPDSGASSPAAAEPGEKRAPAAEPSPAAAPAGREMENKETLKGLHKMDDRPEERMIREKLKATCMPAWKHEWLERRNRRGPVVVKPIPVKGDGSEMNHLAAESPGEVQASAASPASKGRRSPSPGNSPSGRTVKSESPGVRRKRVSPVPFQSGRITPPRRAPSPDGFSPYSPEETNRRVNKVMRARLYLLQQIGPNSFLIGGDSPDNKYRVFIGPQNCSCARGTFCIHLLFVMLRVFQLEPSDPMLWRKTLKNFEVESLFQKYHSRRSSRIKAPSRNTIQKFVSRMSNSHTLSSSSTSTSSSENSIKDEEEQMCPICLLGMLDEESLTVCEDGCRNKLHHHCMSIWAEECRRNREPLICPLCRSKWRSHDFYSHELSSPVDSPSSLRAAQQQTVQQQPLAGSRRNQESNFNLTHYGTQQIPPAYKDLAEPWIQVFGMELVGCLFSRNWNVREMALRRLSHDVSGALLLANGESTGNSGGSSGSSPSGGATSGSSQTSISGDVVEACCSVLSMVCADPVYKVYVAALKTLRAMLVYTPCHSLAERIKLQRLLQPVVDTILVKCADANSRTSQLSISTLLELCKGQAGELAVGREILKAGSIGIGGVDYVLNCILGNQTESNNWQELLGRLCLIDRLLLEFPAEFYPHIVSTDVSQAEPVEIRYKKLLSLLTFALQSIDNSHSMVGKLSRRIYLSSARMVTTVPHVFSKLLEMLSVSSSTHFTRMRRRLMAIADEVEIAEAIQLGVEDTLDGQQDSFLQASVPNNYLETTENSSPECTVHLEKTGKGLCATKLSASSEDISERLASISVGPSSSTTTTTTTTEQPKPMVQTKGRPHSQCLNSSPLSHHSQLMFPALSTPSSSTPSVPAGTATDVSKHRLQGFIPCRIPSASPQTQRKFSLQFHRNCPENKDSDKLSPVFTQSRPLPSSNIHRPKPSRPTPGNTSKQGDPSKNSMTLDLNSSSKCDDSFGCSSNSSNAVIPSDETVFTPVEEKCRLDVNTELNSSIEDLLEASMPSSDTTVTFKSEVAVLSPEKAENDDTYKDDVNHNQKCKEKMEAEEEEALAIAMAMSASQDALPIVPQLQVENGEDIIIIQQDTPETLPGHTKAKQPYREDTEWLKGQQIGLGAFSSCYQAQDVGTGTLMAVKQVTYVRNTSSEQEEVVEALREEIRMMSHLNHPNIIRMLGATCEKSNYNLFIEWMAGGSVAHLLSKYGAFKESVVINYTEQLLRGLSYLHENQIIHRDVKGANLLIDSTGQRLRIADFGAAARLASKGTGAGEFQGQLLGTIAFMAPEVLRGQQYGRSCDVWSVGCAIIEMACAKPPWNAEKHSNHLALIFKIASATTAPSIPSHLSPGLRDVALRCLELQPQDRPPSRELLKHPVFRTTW
The settings on record: read-out: % Enzyme Activity (relative to DMSO controls), MEKK1.

T3 sequence (Q96SB4 whole entry): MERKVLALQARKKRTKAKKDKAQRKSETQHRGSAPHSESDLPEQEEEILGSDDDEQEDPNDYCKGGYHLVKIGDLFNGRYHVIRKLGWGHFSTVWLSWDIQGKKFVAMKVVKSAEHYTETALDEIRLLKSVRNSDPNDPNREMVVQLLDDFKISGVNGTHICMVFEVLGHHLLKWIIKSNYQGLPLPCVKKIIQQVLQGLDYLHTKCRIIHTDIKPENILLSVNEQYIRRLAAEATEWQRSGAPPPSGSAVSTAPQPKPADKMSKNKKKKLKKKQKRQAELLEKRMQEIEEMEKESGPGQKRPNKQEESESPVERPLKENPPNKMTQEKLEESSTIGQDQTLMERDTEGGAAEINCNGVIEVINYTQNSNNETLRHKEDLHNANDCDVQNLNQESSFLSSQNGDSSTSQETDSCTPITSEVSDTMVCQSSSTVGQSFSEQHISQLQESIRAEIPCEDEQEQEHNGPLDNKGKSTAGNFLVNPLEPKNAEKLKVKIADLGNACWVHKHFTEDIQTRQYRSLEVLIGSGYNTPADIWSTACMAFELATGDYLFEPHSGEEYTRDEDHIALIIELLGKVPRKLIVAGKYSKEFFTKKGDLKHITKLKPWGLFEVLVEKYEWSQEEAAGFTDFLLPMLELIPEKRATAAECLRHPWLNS
T13 sequence (Q9NYL2 whole entry): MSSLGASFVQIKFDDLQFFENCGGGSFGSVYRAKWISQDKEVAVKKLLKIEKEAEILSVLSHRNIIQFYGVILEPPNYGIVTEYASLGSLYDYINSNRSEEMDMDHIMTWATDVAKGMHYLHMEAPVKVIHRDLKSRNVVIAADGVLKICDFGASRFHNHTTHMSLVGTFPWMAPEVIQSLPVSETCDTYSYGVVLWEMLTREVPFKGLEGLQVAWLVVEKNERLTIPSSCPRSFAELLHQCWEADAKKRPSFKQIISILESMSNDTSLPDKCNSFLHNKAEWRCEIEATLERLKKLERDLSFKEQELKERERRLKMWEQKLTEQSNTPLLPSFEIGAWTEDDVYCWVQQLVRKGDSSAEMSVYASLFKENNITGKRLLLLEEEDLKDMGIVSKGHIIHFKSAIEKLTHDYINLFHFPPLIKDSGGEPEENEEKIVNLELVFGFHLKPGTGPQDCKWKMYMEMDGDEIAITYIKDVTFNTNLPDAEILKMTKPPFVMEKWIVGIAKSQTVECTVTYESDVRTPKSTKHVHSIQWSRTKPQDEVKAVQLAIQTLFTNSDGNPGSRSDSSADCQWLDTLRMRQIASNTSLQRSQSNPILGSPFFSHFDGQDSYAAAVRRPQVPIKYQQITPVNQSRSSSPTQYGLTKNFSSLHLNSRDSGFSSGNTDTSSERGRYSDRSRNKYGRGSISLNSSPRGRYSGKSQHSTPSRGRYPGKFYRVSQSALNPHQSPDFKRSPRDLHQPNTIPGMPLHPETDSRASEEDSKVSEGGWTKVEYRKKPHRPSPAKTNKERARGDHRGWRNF
T6 sequence (Q5TCY1 whole entry): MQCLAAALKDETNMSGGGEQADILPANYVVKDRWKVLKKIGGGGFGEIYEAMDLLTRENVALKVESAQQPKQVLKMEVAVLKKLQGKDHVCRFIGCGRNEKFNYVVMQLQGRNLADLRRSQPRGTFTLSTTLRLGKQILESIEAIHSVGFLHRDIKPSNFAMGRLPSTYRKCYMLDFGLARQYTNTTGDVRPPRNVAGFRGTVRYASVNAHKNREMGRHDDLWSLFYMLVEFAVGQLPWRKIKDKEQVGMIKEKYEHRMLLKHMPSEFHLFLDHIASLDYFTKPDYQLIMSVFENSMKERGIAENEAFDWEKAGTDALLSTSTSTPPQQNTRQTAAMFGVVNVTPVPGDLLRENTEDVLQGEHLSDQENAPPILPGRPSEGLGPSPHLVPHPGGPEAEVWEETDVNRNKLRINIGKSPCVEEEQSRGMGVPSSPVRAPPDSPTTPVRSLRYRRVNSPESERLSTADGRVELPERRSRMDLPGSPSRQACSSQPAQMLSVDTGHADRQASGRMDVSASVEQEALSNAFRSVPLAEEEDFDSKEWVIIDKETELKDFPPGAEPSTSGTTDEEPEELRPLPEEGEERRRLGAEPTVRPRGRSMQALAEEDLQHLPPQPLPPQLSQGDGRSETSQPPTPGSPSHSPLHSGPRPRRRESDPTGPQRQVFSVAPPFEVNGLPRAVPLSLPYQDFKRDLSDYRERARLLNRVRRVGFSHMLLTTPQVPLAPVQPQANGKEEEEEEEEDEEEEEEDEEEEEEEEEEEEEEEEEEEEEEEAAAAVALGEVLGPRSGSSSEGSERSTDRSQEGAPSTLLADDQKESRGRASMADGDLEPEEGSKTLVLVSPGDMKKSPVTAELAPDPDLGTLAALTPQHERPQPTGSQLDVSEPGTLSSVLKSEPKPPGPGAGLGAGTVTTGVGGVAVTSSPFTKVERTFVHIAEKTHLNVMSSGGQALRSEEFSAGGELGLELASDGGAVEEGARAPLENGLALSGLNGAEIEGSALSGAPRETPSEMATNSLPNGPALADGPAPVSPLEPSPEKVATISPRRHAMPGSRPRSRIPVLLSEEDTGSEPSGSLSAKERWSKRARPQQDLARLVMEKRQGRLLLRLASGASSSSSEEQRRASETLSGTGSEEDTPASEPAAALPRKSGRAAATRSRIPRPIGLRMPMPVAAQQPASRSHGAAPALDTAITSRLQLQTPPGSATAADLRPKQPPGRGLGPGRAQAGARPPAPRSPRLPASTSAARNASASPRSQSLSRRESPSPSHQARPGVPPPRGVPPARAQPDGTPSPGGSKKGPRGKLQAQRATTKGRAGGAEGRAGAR
T10 sequence (Q02750 whole entry): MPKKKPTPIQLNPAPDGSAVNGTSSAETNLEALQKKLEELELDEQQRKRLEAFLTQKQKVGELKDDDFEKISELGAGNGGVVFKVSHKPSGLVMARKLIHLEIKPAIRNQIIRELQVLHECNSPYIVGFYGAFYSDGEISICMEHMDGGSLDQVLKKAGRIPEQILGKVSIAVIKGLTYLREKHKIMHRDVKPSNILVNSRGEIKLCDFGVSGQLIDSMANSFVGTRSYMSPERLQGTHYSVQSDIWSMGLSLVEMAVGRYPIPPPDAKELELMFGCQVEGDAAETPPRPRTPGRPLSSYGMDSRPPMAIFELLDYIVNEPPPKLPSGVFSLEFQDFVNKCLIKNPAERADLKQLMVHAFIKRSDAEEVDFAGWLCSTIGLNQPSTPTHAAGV
T11 sequence (Q6P2M8 whole entry): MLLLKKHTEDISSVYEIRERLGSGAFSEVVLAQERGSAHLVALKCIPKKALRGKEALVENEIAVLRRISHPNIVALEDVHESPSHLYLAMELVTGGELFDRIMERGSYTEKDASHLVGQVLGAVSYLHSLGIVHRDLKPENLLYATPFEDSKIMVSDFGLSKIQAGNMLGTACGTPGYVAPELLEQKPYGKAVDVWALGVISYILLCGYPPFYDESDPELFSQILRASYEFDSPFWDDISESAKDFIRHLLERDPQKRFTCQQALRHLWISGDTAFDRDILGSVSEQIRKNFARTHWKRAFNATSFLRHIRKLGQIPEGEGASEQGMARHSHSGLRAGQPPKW

Consider `O=C(Nc1cnn(-c2csc(C(=O)NC3COC3)c2)c1)Nc1ccccc1Cl` [Compound 17, 4-(4-(3-(2-chlorophenyl)ureido)-1H-pyrazol-1-yl)-N-(oxetan-3-yl)thiophene-2-carboxamide], for which the remaining activity at 5 µM in experiment [1] came to 85.2%; in experiment [2], 48.7%; in experiment [3], 98.7%; in experiment [4], 120%; in experiment [5], 90.7%; in experiment [6], 97.2%. In addition, the remaining activity at 5 µM in experiment [7] came to 140%; in [8], 86%; in experiment [9], 101%; in experiment [10], 104%; in [11] it was 96.3%; in [12], 103%. The remaining activity at 5 µM in experiment [13] was 101%; in experiment [14], 103%.

On to `O=C(Nc1cnn(-c2csc(C(=O)NC3COC3)c2)c1)Nc1c(F)cccc1Cl` [Compound 25, 4-(4-(3-(2-chloro-6-fluorophenyl)ureido)-1H-pyrazol-1-yl)-N-(oxetan-3-yl)thiophene-2-carboxamide], for which the remaining activity at 5 µM came out at 91.7% in experiment [1]; 61.4% in experiment [2]; 104% in experiment [3]; 80.2% in [4]; 99.8% in experiment [5]; 82.3% in experiment [6]. Also, the remaining activity at 5 µM came to 108% in experiment [7]; 100% in [8]; 99.6% in [9]; 107% in [10]; 102% in [11]; 94.8% in experiment [12]. Also, the remaining activity at 5 µM in experiment [13] stood at 90.4%; in experiment [14], 98.7%.

With `Cc1sc(C(=O)NC2COC2)cc1-n1cc(NC(=O)Nc2c(F)cccc2Cl)cn1` [Compound 27, 4-(4-(3-(2-chloro-6-fluorophenyl)ureido)-1H-pyrazol-1-yl)-5-methyl-N-(oxetan-3-yl)thiophene-2-carboxamide], the remaining activity at 10 µM in experiment [1] (10 uM) came out at 109%; in [2] (10 uM), 103%; in experiment [3] (10 uM), 96.9%; in experiment [4] (10 uM), 89.3%; in experiment [5] (10 uM) it was 105%; in experiment [6] (10 uM) it was 113%. The remaining activity at 10 µM came out at 103% in experiment [7] (10 uM); 95.2% in experiment [8] (10 uM); 99.2% in experiment [9] (10 uM); 95.5% in experiment [10] (10 uM); 80.1% in experiment [11] (10 uM); 95.1% in experiment [12] (10 uM). Besides, the figures for the remaining activity at 10 µM in [13] (10 uM) and in experiment [14] (10 uM) were 89.9% and 94.5%, respectively.
